Results taken from ChEMBL document CHEMBL2069273, “Modulation of cofilin phosphorylation by inhibition of the Lim family kinases” (Bioorg Med Chem Lett, 2012).

How the values were obtained:
LIM domain kinase 1 = LIM domain kinase 1 (Homo sapiens, UniProt P53667); assay: Inhibition of LIMK1
LIM domain kinase 2 = LIM domain kinase 2 (Homo sapiens, UniProt P53671); assay: Inhibition of LIMK2
[1] = target: Dual specificity testis-specific protein kinase 1 (Homo sapiens, UniProt Q15569); assay: Inhibition of TESK1
Dual specificity testis-specific protein kinase 1, sequence (Q15569 whole entry): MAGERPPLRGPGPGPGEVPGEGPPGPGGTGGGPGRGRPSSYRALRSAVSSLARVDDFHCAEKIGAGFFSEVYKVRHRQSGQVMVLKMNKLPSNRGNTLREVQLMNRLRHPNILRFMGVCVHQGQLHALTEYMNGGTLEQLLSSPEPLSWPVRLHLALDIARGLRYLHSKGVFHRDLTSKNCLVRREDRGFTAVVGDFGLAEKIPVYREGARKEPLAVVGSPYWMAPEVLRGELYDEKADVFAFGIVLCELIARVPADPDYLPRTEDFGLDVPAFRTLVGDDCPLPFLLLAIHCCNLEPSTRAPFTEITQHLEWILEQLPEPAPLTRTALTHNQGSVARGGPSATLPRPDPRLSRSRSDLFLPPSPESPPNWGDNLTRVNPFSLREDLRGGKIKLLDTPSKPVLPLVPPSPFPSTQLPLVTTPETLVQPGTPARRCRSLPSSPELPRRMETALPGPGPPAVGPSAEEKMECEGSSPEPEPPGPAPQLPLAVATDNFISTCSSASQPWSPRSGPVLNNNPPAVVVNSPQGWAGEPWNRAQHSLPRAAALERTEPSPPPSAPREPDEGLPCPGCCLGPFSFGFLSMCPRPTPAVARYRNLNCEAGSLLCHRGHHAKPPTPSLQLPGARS

[2] = target: T1, Dual specificity testis-specific protein kinase 2 (Homo sapiens, UniProt Q96S53); assay: Inhibition of TESK2
Target sequence in this assay (Q96S53 whole entry): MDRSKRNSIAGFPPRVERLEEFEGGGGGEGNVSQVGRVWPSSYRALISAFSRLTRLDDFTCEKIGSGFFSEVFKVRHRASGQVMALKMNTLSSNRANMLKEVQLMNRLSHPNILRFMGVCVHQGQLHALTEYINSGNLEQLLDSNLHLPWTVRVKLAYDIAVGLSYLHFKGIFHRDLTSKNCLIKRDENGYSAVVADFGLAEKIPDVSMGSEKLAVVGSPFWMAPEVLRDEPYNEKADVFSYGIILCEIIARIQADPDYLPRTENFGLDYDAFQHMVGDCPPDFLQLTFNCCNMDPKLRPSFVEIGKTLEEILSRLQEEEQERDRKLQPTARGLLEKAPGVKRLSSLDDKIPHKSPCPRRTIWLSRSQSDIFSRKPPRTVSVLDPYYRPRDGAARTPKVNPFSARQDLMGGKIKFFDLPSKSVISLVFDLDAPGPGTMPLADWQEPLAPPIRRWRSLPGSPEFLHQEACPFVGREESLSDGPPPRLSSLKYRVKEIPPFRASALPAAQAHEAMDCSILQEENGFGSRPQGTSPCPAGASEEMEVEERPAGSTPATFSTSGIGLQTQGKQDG

[3] = target: Mitogen-activated protein kinase 14 (Homo sapiens, UniProt Q16539); assay: Inhibition of MAPK p38alpha
Mitogen-activated protein kinase 14, sequence (Q16539 whole entry): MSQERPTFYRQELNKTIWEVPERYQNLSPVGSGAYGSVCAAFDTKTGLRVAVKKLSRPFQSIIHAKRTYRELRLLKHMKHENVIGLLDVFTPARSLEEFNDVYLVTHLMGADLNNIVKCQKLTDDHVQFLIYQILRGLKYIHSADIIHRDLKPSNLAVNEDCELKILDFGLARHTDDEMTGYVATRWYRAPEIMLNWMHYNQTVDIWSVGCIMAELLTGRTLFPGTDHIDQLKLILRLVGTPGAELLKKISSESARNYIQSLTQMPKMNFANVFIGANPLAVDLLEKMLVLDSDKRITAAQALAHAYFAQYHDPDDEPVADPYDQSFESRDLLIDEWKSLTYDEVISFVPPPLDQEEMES

[4] = target: T1, Dual specificity testis-specific protein kinase 2; assay: Inhibition of TESK2 at 30 uM
Target sequence in this assay (Q96S53 whole entry, looked up): as the sequence (Q96S53 whole entry) above

LIM domain kinase 2, sequence (P53671 whole entry, the tested form may be a part): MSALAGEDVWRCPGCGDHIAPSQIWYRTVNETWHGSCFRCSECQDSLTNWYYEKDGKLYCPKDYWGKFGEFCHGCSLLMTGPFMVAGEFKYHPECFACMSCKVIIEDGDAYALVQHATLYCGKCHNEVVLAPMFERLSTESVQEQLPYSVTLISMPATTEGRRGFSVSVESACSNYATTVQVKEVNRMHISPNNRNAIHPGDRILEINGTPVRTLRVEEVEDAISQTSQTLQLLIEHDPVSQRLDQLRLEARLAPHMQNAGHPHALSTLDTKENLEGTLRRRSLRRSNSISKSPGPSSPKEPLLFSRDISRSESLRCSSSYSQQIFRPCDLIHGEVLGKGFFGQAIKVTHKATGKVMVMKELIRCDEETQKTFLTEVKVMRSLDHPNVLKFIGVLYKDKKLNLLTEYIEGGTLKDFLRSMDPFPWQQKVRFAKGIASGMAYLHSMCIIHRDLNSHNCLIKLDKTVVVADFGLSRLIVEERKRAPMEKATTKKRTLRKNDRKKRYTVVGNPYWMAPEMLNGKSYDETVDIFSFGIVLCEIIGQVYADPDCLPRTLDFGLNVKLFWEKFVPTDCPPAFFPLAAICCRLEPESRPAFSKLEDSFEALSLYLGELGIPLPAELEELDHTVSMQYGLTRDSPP
LIM domain kinase 1, sequence (P53667 whole entry, the tested form may be a part): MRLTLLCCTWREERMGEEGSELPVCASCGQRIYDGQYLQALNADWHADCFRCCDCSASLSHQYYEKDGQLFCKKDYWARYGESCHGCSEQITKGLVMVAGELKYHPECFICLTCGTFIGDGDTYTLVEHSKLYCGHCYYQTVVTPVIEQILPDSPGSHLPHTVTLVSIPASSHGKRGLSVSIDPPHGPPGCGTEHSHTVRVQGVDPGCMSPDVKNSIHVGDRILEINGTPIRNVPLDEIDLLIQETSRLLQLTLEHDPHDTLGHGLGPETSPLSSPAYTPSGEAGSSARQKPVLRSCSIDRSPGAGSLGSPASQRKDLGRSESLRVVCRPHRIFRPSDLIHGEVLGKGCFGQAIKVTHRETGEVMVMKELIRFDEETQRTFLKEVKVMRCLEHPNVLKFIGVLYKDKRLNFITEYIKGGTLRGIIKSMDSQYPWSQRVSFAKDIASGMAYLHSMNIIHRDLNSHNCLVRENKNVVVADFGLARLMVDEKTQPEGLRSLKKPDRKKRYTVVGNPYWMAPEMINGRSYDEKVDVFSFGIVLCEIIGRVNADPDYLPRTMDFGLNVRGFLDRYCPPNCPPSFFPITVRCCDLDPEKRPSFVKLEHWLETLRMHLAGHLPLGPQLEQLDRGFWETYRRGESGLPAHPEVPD

SMILES	IC50 (LIM domain kinase 1)	IC50 (LIM domain kinase 2)	IC50 [1]	IC50 [2]	IC50 [3]	inhibition [4]
CCCNc1ncc(-c2cc(-c3cc(OC)ccc3Cl)nc(-c3cnccn3)n2)s1	12500 nM	760 nM	> 30000 nM	> 30000 nM	–	–
CCCNc1ncc(-c2cc(-c3ccc(OC(CC)CC)cc3Cl)nc(-c3cnccn3)n2)s1	359 nM	50000 nM	> 30000 nM	> 30000 nM	–	–
CCOc1ccc(-c2cc(-c3cnc(NC(C)C)s3)nc(-c3cnccn3)n2)c(Cl)c1	368 nM	–	–	–	2000 nM	–
CCCNc1ncc(-c2cc(-c3c(Cl)cc(OC)cc3Cl)nc(-c3cnccn3)n2)s1	38 nM	16 nM	> 30000 nM	–	–	72%
CCCCCOc1ccc(-c2cc(-c3cnc(NCCC)s3)nc(-c3cnccn3)n2)c(Cl)c1	444 nM	1540 nM	> 30000 nM	> 30000 nM	–	–
COc1cc(Cl)c(-c2cc(-c3cnc(NC(C)=O)s3)nc(-c3cnccn3)n2)c(Cl)c1	30 nM	8 nM	> 30000 nM	> 30000 nM	–	–
CCOc1ccc(-c2cc(-c3cnc(NC(C)C)s3)nc(-c3ccccc3F)n2)c(Cl)c1	> 50000 nM	–	–	–	590 nM	–
COC(=O)Nc1ncc(-c2cc(-c3c(C)cc(OC)cc3C)nc(-c3cnccn3)n2)s1	284 nM	202 nM	11900 nM	2740 nM	–	–
CCC(CC)Oc1cc(C)c(-c2cc(-c3cnc(NC(=O)C(C)C)s3)nc(-c3cnccn3)n2)c(C)c1	172 nM	245 nM	> 12500 nM	> 12500 nM	–	–
CNC(=O)Nc1ncc(-c2cc(-c3c(C)cc(OC)cc3C)nc(-c3cnccn3)n2)s1	23 nM	16 nM	1130 nM	415 nM	–	–
CCCNc1ncc(-c2cc(-c3ccc(OC(CC)CC)cc3C)nc(-c3cnccn3)n2)s1	213 nM	1220 nM	> 30000 nM	> 30000 nM	–	–
CCC(CC)Oc1cc(C)c(-c2cc(-c3cnc(NC(=O)NC)s3)nc(-c3cnccn3)n2)c(C)c1	66 nM	173 nM	2200 nM	415 nM	–	–
CCCNc1ncc(-c2cc(-c3cc(OCCC)ccc3Cl)nc(-c3cnccn3)n2)s1	1040 nM	171 nM	> 30000 nM	> 30000 nM	–	–
